We go through 2 compounds from US8148392B2, “2-indolyl imidazo [4,5-d] phenanthroline derivatives and their use in the treatment of cancer” (Lorus Therapeutics Inc., priority 2005, dated 2012).

The test system of one assay is HT-29 cells. As to the kind of experiment: Effect of exogenous metals on growth inhibition of HT-29 cells (XTT). The format is cell-based, human. Conditions: HT-29, 5 days; for effect of exogenous zinc on growth inhibition: ZnCl2 (100 μM). The procedure: To determine whether metal chelation is involved in the growth inhibitory activity of compounds of Formula I, exogenous metals (ZnCl2, FeCl2.4H2O, FeCl3.4H2O, MgCl2, at 100 μM) were incubated with HT-29 cells, simultaneously with control vehicle DMSO, compound 3 (5 μM), or compound 13 (25 μM), for 5 days. […] Growth inhibition by compound 13 is predicted to occur through a different mechanism than compound 3.
To determine whether chelation of copper is involved in the growth inhibitory activity of compounds of Formula I, HT-29 cells were incubated with up to 5 μM of compound 3, in the presence or absence of 25 μM CuSO4.5H20 for 5 days.
To determine whether metal chelation is involved in the growth inhibitory activity of compound 3, various concentrations of exogenous metals were incubated with HT-29 cells, simultaneously with various concentrations of compound 3, for 5 days. The exogenous metals tested were: ZnCl2 (zinc), CuSO4.5H20 (copper), FeCl2 (iron II), FeCl3.4H20 (iron III), MgCl2 (magnesium), and CaCl2.2H20 (calcium). HT-29 cells (4×10^3/well) in 100 μL volume of the growth medium were seeded in 96-well cell culture plates and incubated overnight at 37° C. The medium was removed and replaced with a total volume of 100 μl growth medium containing concentrations of metal ions as shown in FIG. 5 with compound 3 or 0.1% DMSO vehicle control. After incubation of the cells at 37° C. for 5 days, cell viability was quantitated using the XTT (sodium 3′-[1-(phenylamino-carbonyl)-3,4-tetrazolium}-bis (4-methoxy-6-nitro) benzene sulfonic acid hydrate) calorimetric assay (Roche Applied Science, Penzberg, Germany). XTT labeling reagent (1 mg/mL) was mixed with electron-coupling reagent, following the manufacturer's instructions, and 50 μl of the mixture was added directly to the cells cultured in 100 μl growth medium. The plates were further incubated at 37° C. for 4 hours and the absorbance of each well was measured by a multi-well spectrophotometer (Bio-Tek Instruments Inc.) at 460 nm. The data were adjusted relative to the blank, and were expressed as % of cell growth compared to the DMSO control.
To determine the ability of compounds 5 and 7 to chelate metals in cells, exogenous metals were added to HT-29 cells, simultaneously with various concentrations of compounds 5 and 7. Briefly, HT-29 cells were treated with various concentrations compounds 5 and 7, plus or minus copper (25 μM CuSO4.5H20) or zinc (100 μM of ZnCl2), for 5 days. Cell viability was determined by XTT assay. The effects of copper and zinc on growth inhibition of HT-29 cells are shown in FIG. 6A for compound 5 and in FIG. 6B for compound 7.
Effect of metal ion supplements on compound 3-mediated cell growth inhibition of HT-29 cells was examined by XTT cell proliferation assay.
On the technique in general: Tetrazolium assays rely on reduction of a dye to a coloured formazan, in cell work by metabolically active cells.

A further assay concerns Cyclin D1. In words: Cyclin D1 mRNA in HT-29 tumour xenografts, RT-PCR. To be noted: HT-29 xenograft, versus vehicle. The format is in vivo, CD-1 female nude mice. Here is the method:
The ability of compound 3 to modulate expression of Cyclin D1 was determined using the HT-29 colon tumour xenograft model as described in Example 26. The expression of Cyclin D1 mRNA was analyzed by real-time polymerase chain reaction as described in Example 30. […] The results of this experiment combined with the results described for the effect of compound 3 in vivo on KLF4 and P21 expression as described in Examples 30 and 31 are shown in FIG. 20.
Correlation between zinc-sensitive transcription factor MTF-1 and a cell cycle regulator Cyclin D1 expression in HT-29 colon cancer xenograft tissues is shown in FIG. 30. Based on the presence of putative MTF-1-binding DNA sequences in Cyclin D1 gene promoter region (shown in FIG. 30A), expression levels of MTF-1 and Cyclin D1 in xenograft tissues were examined by RT-PCR, using tissue RNA extract.
To examine the effect of compound 3-mediated changes in KLF4 and Cyclin D1 expressions in vivo, the expressions of respective genes in xenograft tissues of vehicle control (Lutrol) and compound 3-treated HT-29 colon cancer cell-transplanted mice were analyzed by RT-PCR (FIG. 46). Briefly, KLF4 and Cyclin D1 gene expression in HT-29 xenograft tissues after 14 days treatment with compound 3 was measured as follows. The mice subcutaneously transplanted with HT-29 cells were treated with vehicle control (administerd i.p.) or 100 mg/kg compound 3 (administered i.p.) for 14 days (n=6 in each group). Total RNA was extracted and gene expression level was determined by RT-PCR. KLF4 and Cyclin D1 gene expressions were normalized with β-actin gene expression in the same sample. […]
The tumor regression efficacy of compound 3 was assessed in compound 3-treated HT-29-transplanted athymic mice (FIG. 54A), and correlated with gene expressions of MTF-1, KLF4 and Cyclin D1 in HT-29 xenograft tissues (FIG. 54B). […] The tumor size was measured during the course of treatment using calipers (FIG. 54A). […] The tumor tissues were excised, frozen immediately and stored at −80° C. until RNA extraction and gene expression was analyzed by RT-PCR (FIG. 54B). […]

The mark [1] stands for this setting: 25 μM CuSO4, low concentrations of compound (less than 2 μM).

“Also recorded” adds a separate entry of the source.

As for `Cc1[nH]c2ccccc2c1-c1nc2c3cccnc3c3ncccc3c2[nH]1` [Compound 3], the “effect of iron(III), magnesium and calcium on growth inhibition” value with HT-29 cells was “essentially no effect”. The “effect of exogenous copper on growth inhibition” value was “significantly enhanced the activity” with HT-29 cells (25 μM CuSO4, high concentrations of compound (>2.5 μM)) and “Copper impaired the growth inhibitory activities” in the assay on HT-29 cells (setting [1]). Moreover, the “effect of exogenous zinc on growth inhibition” value in the assay with HT-29 cells is “completely impaired; also recorded: impaired the growth inhibitory activities; also recorded: completely reversed by zinc only”. In addition, the “effect of excess iron and magnesium on growth inhibition” value in the assay with HT-29 cells (metals at 100 μM, compound 3 5 μM) was “no effect”. The “Cyclin D1 expression in tumour xenografts” value with Cyclin D1 was “consistently reduced the expression of Cyclin D1”; in the assay on Cyclin D1 (listed as compound 3) it was “decreased Cyclin D1 expression; also recorded: decrease in MTF-1 and Cyclin D1 gene expressions”.

Regarding `Cc1[nH]c2ccc(F)cc2c1-c1nc2c3cccnc3c3ncccc3c2[nH]1` [Compound 7], in the assay on HT-29 cells (setting [1]), the “effect of exogenous copper on growth inhibition” value was “copper impaired the activity only at low concentrations”. Besides, the “effect of exogenous zinc on growth inhibition” value with HT-29 cells is given as “zinc impaired the growth inhibitory activities”. For the same compound, the “Cyclin D1 expression in tumour xenografts” value with Cyclin D1 is recorded as “decreased Cyclin D1 expression”.
